Data on 7 molecules can be found in patent US11572399B2, “Long-acting GIP peptide analogues” (University of Copenhagen, priority 2017, dated 2023).

Each structure is given as a SMILES string. pIC50: −log10 of the molar value. Peptide text beside a SMILES is read from it. * marks the point of attachment. C16 diacid = O=C(O)CCCCCCCCCCCCCCC(=O)*; Palmitoyl = CCCCCCCCCCCCCCCC(=O)*

The target of experiment [1] is T1, human GIP receptor (Homo sapiens, UniProt P48546).
T1 construct: host or cells: COS-7, transient transfection (calcium phosphate), cDNA in pCMV-Script
T1 sequence (P48546 22-466): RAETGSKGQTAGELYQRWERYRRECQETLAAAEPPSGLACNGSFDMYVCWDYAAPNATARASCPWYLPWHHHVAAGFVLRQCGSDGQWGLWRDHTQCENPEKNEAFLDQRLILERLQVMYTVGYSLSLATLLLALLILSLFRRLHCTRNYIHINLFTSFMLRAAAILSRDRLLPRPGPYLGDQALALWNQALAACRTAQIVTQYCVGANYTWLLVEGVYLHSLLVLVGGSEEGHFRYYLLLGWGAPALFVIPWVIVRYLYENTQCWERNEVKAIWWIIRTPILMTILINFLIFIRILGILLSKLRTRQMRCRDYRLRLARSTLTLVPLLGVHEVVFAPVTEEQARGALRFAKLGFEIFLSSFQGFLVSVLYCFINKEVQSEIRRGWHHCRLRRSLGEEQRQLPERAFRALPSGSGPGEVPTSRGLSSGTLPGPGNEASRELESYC
Nature of the experiment: cAMP accumulation assay, antagonism of a GIP-mediated cAMP response (50-80% of max). It counts as cell-based. Conditions: for IC50: transiently transfected COS-7 cells, Table 1 and text, read-out: cAMP antagonism nM (IC50, antagonistic potency). As to the method: The day after, the cells were washed twice with Hepes buffered saline (HBS) buffer and incubated with HBS and 1 mM 3-isobutyl-1-methylxanthine (IBMX) for 30 min at 37° C. […] The HitHunter™ cAMP XS assay (DiscoveRx) was carried out according to the manufacturer's instructions.
Background: Cyclic AMP is a second messenger, typically raised through Gs and lowered through Gi signalling.

The target of experiment [2] is T1, human GIP receptor. The experiment in a line: cAMP accumulation assay, agonism (ligand alone). It counts as cell-based. Conditions: COS-7 cells, Table 1; for Emax: COS-7, intrinsic cAMP activity; for EC50: read-out: cAMP agonism nM (EC50).
Experiment [3] has as its target T1, human GIP receptor. Nature of the experiment: 125I-human GIP competition binding assay, in the presence and absence of 2% HSA.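 Further: nonspecific binding taken as radioligand bound to untransfected cells, IC50 obtained from nonlinear regression fits.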
Where [4] appears, read: heterologous competition binding, transiently transfected COS-7 cells expressing the human GIP receptor, read-out: Binding.

By Emax is commonly meant the maximal effect, on the per cent scale that the assay sets. For `CC[C@H](C)[C@H](NC(=O)[C@H](CO)NC(=O)[C@H](Cc1ccc(O)cc1)NC(=O)[C@H](CC(=O)O)NC(=O)[C@H](CO)NC(=O)[C@@H](NC(=O)[C@H](Cc1ccccc1)NC(=O)[C@@H](N)[C@@H](C)O)[C@@H](C)CC)C(=O)N[C@@H](C)C(=O)N[C@@H](CCSC)C(=O)N[C@@H](CC(=O)O)C(=O)N[C@@H](CCCCN)C(=O)N[C@@H](CCCCNC(=O)CCCCCCCCCCCCCCC(=O)O)C(=O)N[C@@H](Cc1c[nH]cn1)C(=O)N[C@@H](CCC(N)=O)C(=O)N[C@@H](CCC(N)=O)C(=O)N[C@@H](CC(=O)O)C(=O)N[C@@H](Cc1ccccc1)C(=O)N[C@H](C(=O)N[C@@H](CC(N)=O)C(=O)N[C@@H](Cc1c[nH]c2ccccc12)C(=O)N[C@@H](CC(C)C)C(=O)N[C@@H](CC(C)C)C(=O)N[C@@H](C)C(=O)N[C@@H](CCC(N)=O)C(=O)N[C@@H](CCCCN)C(N)=O)C(C)C` [AT178, [hGIP(5-30)NH2[I17K]-C16diacid/17]] (H-TFISDYSIAMDKK(C16 diacid)HQQDFVNWLLAQK-NH2; N-terminus assumed), the pIC50 at human GIP receptor [1] (antagonism of GIP-mediated cAMP response, COS-7 cells, read-out: cAMP accumulation IC50) is 7.56; at human GIP receptor [3] (setting [4]), 7.18. The “Fold change of IC50 versus GIP(5-30)NH2” value at human GIP receptor [1] (fold change of IC50 from GIP(5-30)NH2) stood at 1. The IC50 on human GIP receptor [1] is 33 nM; on human GIP receptor [3] (binding in 0.1% casein (absence of HSA), log value, read-out: logIC50 0.1% casein (converted)), 0.0631 µM. Also, the Emax on human GIP receptor [2] turned out to be 0%. The “Fold change HSA (2%)/Casein (0.1%)” value at human GIP receptor [3] (IC50 (plus HSA)/IC50 (minus HSA)) came to 3.0. Moreover, the “Binding (+/−HSA) Fold” value on human GIP receptor [3] (fold change +HSA/−HSA) is given as 4.5.

One may read the EC50 as the midpoint of the concentration-response curve. Consider `CCCCCCCCCCCCCCCC(=O)NCCCC[C@H](NC(=O)[C@H](CCC(=O)O)NC(=O)[C@H](CCSC)NC(=O)[C@H](C)NC(=O)[C@@H](NC(=O)[C@H](CO)NC(=O)[C@H](Cc1ccc(O)cc1)NC(=O)[C@H](CC(=O)O)NC(=O)[C@H](CO)NC(=O)[C@@H](NC(=O)[C@H](Cc1ccccc1)NC(=O)[C@H](Cc1c[nH]c2ccccc12)NC(=O)CNC(=O)[C@@H](N)CCC(=O)O)[C@@H](C)CC)[C@@H](C)CC)C(=O)N[C@H](C(=O)N[C@@H](C)C(=O)N[C@@H](CCC(N)=O)C(=O)N[C@@H](CCC(N)=O)C(=O)N[C@@H](CC(=O)O)C(=O)N[C@@H](Cc1ccccc1)C(=O)N[C@H](C(=O)N[C@@H](CC(N)=O)C(=O)N[C@@H](Cc1c[nH]c2ccccc12)C(=O)N[C@@H](CC(C)C)C(=O)N[C@@H](CC(C)C)C(=O)N[C@@H](C)C(=O)N[C@@H](CCC(N)=O)C(=O)N[C@@H](CCCCN)C(N)=O)C(C)C)[C@@H](C)CC` [AT107, [hGIP(3-30)NH2[T5W; D15E; H18A]-C16/16]] (H-EGWFISDYSIAMEK(Palmitoyl)IAQQDFVNWLLAQK-NH2; N-terminus assumed), for which the “cAMP - antagonisme fold (paired)” value on human GIP receptor [1] (fold vs GIP(3-30)NH2, Table 3b) was 3.1 fold. For the same molecule, on human GIP receptor [2], the Emax came to 23% and the EC50 is 1300 nM. The pIC50 at human GIP receptor [3] (Table 3b, initial data, read-out: Binding IC50) was 5.28. Further, the “Binding fold (paired)” value on human GIP receptor [3] (fold decrease in affinity compared to GIP(3-30)NH2, Table 3b) stood at 186 fold. The pIC50 at human GIP receptor [3] (setting [4]) was 5.28.

With `CC[C@H](C)[C@H](NC(=O)[C@H](CO)NC(=O)[C@H](Cc1ccc(O)cc1)NC(=O)[C@H](CC(=O)O)NC(=O)[C@H](CO)NC(=O)[C@@H](NC(=O)[C@H](Cc1ccccc1)NC(=O)[C@@H](NC(=O)CNC(=O)[C@@H](N)CCC(=O)O)[C@@H](C)O)[C@@H](C)CC)C(=O)N[C@@H](C)C(=O)N[C@@H](CCSC)C(=O)N[C@@H](CC(=O)O)C(=O)N[C@@H](CCCCN)C(=O)N[C@@H](CCCCNC(=O)CCCCCCCCCCCCCCC(=O)O)C(=O)N[C@@H](Cc1c[nH]cn1)C(=O)N[C@@H](CCC(N)=O)C(=O)N[C@@H](CCC(N)=O)C(=O)N[C@@H](CC(=O)O)C(=O)N[C@@H](Cc1ccccc1)C(=O)N[C@H](C(=O)N[C@@H](CC(N)=O)C(=O)N[C@@H](Cc1c[nH]c2ccccc12)C(=O)N[C@@H](CC(C)C)C(=O)N[C@@H](CC(C)C)C(=O)N[C@@H](C)C(=O)N[C@@H](CCC(N)=O)C(=O)N[C@@H](CCCCN)C(N)=O)C(C)C` [AT307, [hGIP(3-30)NH2[I17K]-C16diacid/17]] (H-EGTFISDYSIAMDKK(C16 diacid)HQQDFVNWLLAQK-NH2; N-terminus assumed), the IC50 at human GIP receptor [1] came to 93 nM. At human GIP receptor [2], the Emax stood at 4.9% and the concentration for a half-maximal effect (EC50) amounted to 14 nM.

`CC[C@H](C)[C@H](NC(=O)[C@H](CO)NC(=O)[C@H](Cc1ccc(O)cc1)NC(=O)[C@H](CC(=O)O)NC(=O)[C@H](CO)NC(=O)[C@@H](NC(=O)[C@H](CCCCNC(=O)CCCCCCCCCCCCCCC(=O)O)NC(=O)[C@@H](NC(=O)CNC(=O)[C@@H](N)CCC(=O)O)[C@@H](C)O)[C@@H](C)CC)C(=O)N[C@@H](C)C(=O)N[C@@H](CCSC)C(=O)N[C@@H](CC(=O)O)C(=O)N[C@@H](CCCCN)C(=O)N[C@H](C(=O)N[C@@H](Cc1c[nH]cn1)C(=O)N[C@@H](CCC(N)=O)C(=O)N[C@@H](CCC(N)=O)C(=O)N[C@@H](CC(=O)O)C(=O)N[C@@H](Cc1ccccc1)C(=O)N[C@H](C(=O)N[C@@H](CC(N)=O)C(=O)N[C@@H](Cc1c[nH]c2ccccc12)C(=O)N[C@@H](CC(C)C)C(=O)N[C@@H](CC(C)C)C(=O)N[C@@H](C)C(=O)N[C@@H](CCC(N)=O)C(=O)N[C@@H](CCCCN)C(N)=O)C(C)C)[C@@H](C)CC` [AT297, [hGIP(3-30)NH2[F6K]-C16diacid/6]]: on human GIP receptor [1], the IC50 stood at 603 nM. The molecule further gave an Emax on human GIP receptor [2] of 19%.

In the case of `CC[C@H](C)[C@H](NC(=O)[C@H](CCCCN)NC(=O)[C@H](CC(=O)O)NC(=O)[C@H](CCSC)NC(=O)[C@H](CCCCNC(=O)CCCCCCCCCCCCCCC(=O)O)NC(=O)[C@@H](NC(=O)[C@H](CO)NC(=O)[C@H](Cc1ccc(O)cc1)NC(=O)[C@H](CC(=O)O)NC(=O)[C@H](CO)NC(=O)[C@@H](NC(=O)[C@H](Cc1ccccc1)NC(=O)[C@@H](NC(=O)CNC(=O)[C@@H](N)CCC(=O)O)[C@@H](C)O)[C@@H](C)CC)[C@@H](C)CC)C(=O)N[C@@H](Cc1c[nH]cn1)C(=O)N[C@@H](CCC(N)=O)C(=O)N[C@@H](CCC(N)=O)C(=O)N[C@@H](CC(=O)O)C(=O)N[C@@H](Cc1ccccc1)C(=O)N[C@H](C(=O)N[C@@H](CC(N)=O)C(=O)N[C@@H](Cc1c[nH]c2ccccc12)C(=O)N[C@@H](CC(C)C)C(=O)N[C@@H](CC(C)C)C(=O)N[C@@H](C)C(=O)N[C@@H](CCC(N)=O)C(=O)N[C@@H](CCCCN)C(N)=O)C(C)C` [AT304, [hGIP(3-30)NH2[A13K]-C16diacid/13]] (H-EGTFISDYSIK(C16 diacid)MDKIHQQDFVNWLLAQK-NH2; N-terminus assumed), the IC50 at human GIP receptor [1] worked out at 199 nM. Also, at human GIP receptor [2] (intrinsic cAMP activity), the “cAMP agonism Emax” value is “no ag”.

With `CCCCCCCCCCCC(=O)NCCCC[C@H](NC(=O)[C@H](CCC(N)=O)NC(=O)[C@H](C)NC(=O)[C@H](CC(C)C)NC(=O)[C@H](CC(C)C)NC(=O)[C@H](Cc1c[nH]c2ccccc12)NC(=O)[C@H](CC(N)=O)NC(=O)[C@@H](NC(=O)[C@H](Cc1ccccc1)NC(=O)[C@H](CC(=O)O)NC(=O)[C@H](CCC(N)=O)NC(=O)[C@H](CCC(N)=O)NC(=O)[C@H](Cc1c[nH]cn1)NC(=O)[C@@H](NC(=O)[C@H](CCCCN)NC(=O)[C@H](CC(=O)O)NC(=O)[C@H](CCSC)NC(=O)[C@H](C)NC(=O)[C@@H](NC(=O)[C@H](CO)NC(=O)[C@H](Cc1ccc(O)cc1)NC(=O)[C@H](CC(=O)O)NC(=O)[C@H](CO)NC(=O)[C@@H](NC(=O)[C@H](Cc1ccccc1)NC(=O)[C@@H](NC(=O)CNC(=O)[C@@H](N)CCC(=O)O)[C@@H](C)O)[C@@H](C)CC)[C@@H](C)CC)[C@@H](C)CC)C(C)C)C(N)=O` [AT103, [hGIP(3-30)NH2—C12/30]], the IC50 on human GIP receptor [1] is 121 nM. Also, the maximal effect (Emax) at human GIP receptor [2] stood at 7%.

In the case of `CC[C@H](C)[C@H](NC(=O)[C@H](CO)NC(=O)[C@H](Cc1ccc(O)cc1)NC(=O)[C@H](CC(=O)O)NC(=O)[C@H](CCCCNC(=O)CCCCCCCCCCCCCCC(=O)O)NC(=O)[C@@H](NC(=O)[C@H](Cc1ccccc1)NC(=O)[C@@H](NC(=O)CNC(=O)[C@@H](N)CCC(=O)O)[C@@H](C)O)[C@@H](C)CC)C(=O)N[C@@H](C)C(=O)N[C@@H](CCSC)C(=O)N[C@@H](CC(=O)O)C(=O)N[C@@H](CCCCN)C(=O)N[C@H](C(=O)N[C@@H](Cc1c[nH]cn1)C(=O)N[C@@H](CCC(N)=O)C(=O)N[C@@H](CCC(N)=O)C(=O)N[C@@H](CC(=O)O)C(=O)N[C@@H](Cc1ccccc1)C(=O)N[C@H](C(=O)N[C@@H](CC(N)=O)C(=O)N[C@@H](Cc1c[nH]c2ccccc12)C(=O)N[C@@H](CC(C)C)C(=O)N[C@@H](CC(C)C)C(=O)N[C@@H](C)C(=O)N[C@@H](CCC(N)=O)C(=O)N[C@@H](CCCCN)C(N)=O)C(C)C)[C@@H](C)CC` [AT299, [hGIP(3-30)NH2[S8K]-C16diacid/8]] (H-EGTFIK(C16 diacid)DYSIAMDKIHQQDFVNWLLAQK-NH2; N-terminus assumed), the IC50 at human GIP receptor [1] turned out to be 199 nM. Besides, on human GIP receptor [2], the Emax was 15.2% and the EC50 was 15 nM.
